Data taken from US8354430B2, “Monohydrochloride salt of 1-[3-[3-(4-chlorophenyl) propoxy]propyl]-piperidine” (priority 2005, dated 2013).
Where “and” joins values, the source holds several entries; their conditions need not be identical. Identical values can stand only once. Entries after “also recorded” stand apart in the source; their conditions may differ.

Experiments:
Human H1R = Human H1R (Homo sapiens, UniProt P35367); assay: Histamine-induced increase in [35S]GTPγS binding; type: biochemical; conditions: read-out: Ki or IC50, [35S]GTPγS
H2R = H2R (Cavia porcellus, UniProt P47747); assay: [125I]iodoaminopotentidine binding assay to the guinea pig H2 receptor; conditions: read-out: Ki or IC50, H2R
Human H4R = Human H4R (Homo sapiens, UniProt Q9H3N8); assay: [3H]histamine binding assay; conditions: read-out: Ki or IC50, Human H4R
GAERS rats = assay: Absence epilepsy in GAERS rat; type: in vivo
Excerpt: A strain of Wistar rats with spontaneously generalized non convulsive seizures (absence seizures) has been developed in Strasbourg (Genetic Absence Epilepsy Rats of Strasbourg or GAERS). Seizures are characterized by bilateral and synchronous spike-and-wave discharges (7-9 Hz) on EEG, concomitant with behavioral arrests. These discharges generally last about 20 sec and occur spontaneously every minute when the animals are in a state of quiet wakefulness. Pharmacological reactivity of this model is similar to human absence-epilepsy (e.g., valproate and ethosuccimide are protective). After a recovery period, implanted rats (cortical and hippocampal EEG electrodes) were recorded over a 20 min reference period. […] Rats received the alternative treatment one week later. Cumulated duration of absence-seizures was measured by 20 min periods during the two sessions. Fast Fourier transform analysis of EEG recording allowed detection of any rhythm change during both ictal and inter-ictal periods (background activity).

mice [1] = assay: Electroshock in mice (maximal electroshock seizure model); type: in vivo, mouse; conditions: 100 mg/kg, p.o.; test 60 min after dosing
cats = assay: Sleep-wake cycle study in cats (EEG/EMG); type: in vivo, cat
Procedure: Animals were chronically implanted with cortical and muscle electrodes to record EEG and EMG respectively, to allow monitoring their sleep-wake cycle. After recovery from surgery, animals were housed individually in a sound-proof recorded room maintaining at appropriate ambient temperature on a 12 h light/dark cycle. Polygraphic recordings were performed during 4 days to collect reference qualitative and quantitative data of sleep-wake control in each individual. Then, pharmacological evaluation was performed over 24 h sessions and analyzed by successive 30 sec epochs. Wakefulness and sleep states were identified as previously described for cats [Petitjean et al., Brain Res., 1975, 88: 439-53] and mice [[…] and Bugat, Brain Res., 1974, 69: 315-30]. Polygraphic recordings were started 7 days after surgery. Sleep-wake recording criteria included wakefulness (W), light slow wave sleep (SWS1), deep […]2) and paradoxical sleep (PS). Spectral analysis of EEG was performed by Fast-Fourier Transform in the frequency bands 0.8-2.5 Hz ([delta] slow waves), 8-15 Hz (spindles) and 20-45 Hz ([beta] and [gamma] rapid waves).

mice [2] = assay: Sleep-wake cycle study in mice (EEG/EMG); type: in vivo, mouse
Procedure: Animals were chronically implanted with cortical and muscle electrodes to record EEG and EMG respectively, to allow monitoring their sleep-wake cycle. After recovery from surgery, animals were housed individually in a sound-proof recorded room maintaining at appropriate ambient temperature on a 12 h light/dark cycle. Polygraphic recordings were performed during 4 days to collect reference qualitative and quantitative data of sleep-wake control in each individual. Then, pharmacological evaluation was performed over 24 h sessions and analyzed by successive 30 sec epochs. Wakefulness and sleep states were identified as previously described for cats [Petitjean et al., Brain Res., 1975, 88: 439-53] and mice [Valatx and Bugat, Brain Res., 1974, 69: 315-30].
Polygraphic recordings were started 15 days after surgery (5 days recovery plus 10 days acclimation to the recording wires). Sleep-wake recording criteria included wakefulness (W), slow wave sleep (SWS) and paradoxical sleep (PS). Spectral analysis of EEG was performed by Fast-Fourier Transform in the 0.8-2.5 Hz, 8-15 Hz and 30-60 Hz frequency bands.

mice [3] = assay: Natural forgetting, two-trial object recognition; type: in vivo, mouse
Procedure: Methods: Mice were submitted to the first trial (T1), placed in the box containing two identical objects and the time required by each animal to complete 8 sec of object exploration was determined. Exploration was considered to be directing the nose at a distance closer than 2 cm to the object and/or touching the object. Immediately after the first trial mice were treated with the vehicle or tacrine (0.25 mg/kg, i.p.). […] Mice were placed in the box for 5 min and exploration of each object together with motor activity was determined. The following parameters were measured: […]

mice [4] = assay: Acute toxicity in mouse; type: in vivo; conditions: for no-effect dose: mouse, in vivo
epileptic patients = assay: Photo paroxysmal response (PPR) to intermittent photic stimulation in photosensitive epileptic patients, single-blind single dose; type: in vivo, human; conditions: for Delay of apparition / Duration of effect / Suppression of PPR: individual patients
Excerpt: Acta Neurol. […] Unlike most other epilepsies, photosensitive epilepsy is a reflex epilepsy and epileptiform discharges can be evoked at any time by IPS in the laboratory. By determination of both upper and lower sensitivity limits (frequencies per flash) a so-called photosensitivity range can be determined. The range is related to liability of seizures in daily life of the patient. This photosensitivity range is relatively stable within a patient and can be diminished or abolished by antiepileptic medication. […] Twelve patients have been enrolled. Four patients received the dose of 20 mg. […] Four patients received the dose of 40 mg.

human H3R = human H3R (Homo sapiens, UniProt Q9Y5N1); assay: Histamine H3 receptor binding, recombinant human H3R expressed in rat glioma C6 cells; set-up: expressed in transfected cells; host or cells: various mammalian cells (the earlier reading names rat glioma C6)
[5] = 40 mg single dose, monohydrochloride
[6] = 60 mg single dose, monohydrochloride

Sequence of human H3R (Q9Y5N1 whole entry): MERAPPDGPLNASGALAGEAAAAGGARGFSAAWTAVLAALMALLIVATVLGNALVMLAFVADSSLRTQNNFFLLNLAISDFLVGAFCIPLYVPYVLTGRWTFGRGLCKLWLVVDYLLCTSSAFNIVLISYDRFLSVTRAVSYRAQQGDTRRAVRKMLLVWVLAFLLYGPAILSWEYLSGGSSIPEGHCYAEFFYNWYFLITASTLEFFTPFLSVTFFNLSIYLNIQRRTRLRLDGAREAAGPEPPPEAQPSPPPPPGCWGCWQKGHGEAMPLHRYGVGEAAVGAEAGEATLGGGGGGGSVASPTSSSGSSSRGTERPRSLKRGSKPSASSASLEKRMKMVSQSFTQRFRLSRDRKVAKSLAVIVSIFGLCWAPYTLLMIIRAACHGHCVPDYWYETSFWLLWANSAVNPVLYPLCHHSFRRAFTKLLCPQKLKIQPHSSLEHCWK
Sequence of Human H1R (P35367 whole entry): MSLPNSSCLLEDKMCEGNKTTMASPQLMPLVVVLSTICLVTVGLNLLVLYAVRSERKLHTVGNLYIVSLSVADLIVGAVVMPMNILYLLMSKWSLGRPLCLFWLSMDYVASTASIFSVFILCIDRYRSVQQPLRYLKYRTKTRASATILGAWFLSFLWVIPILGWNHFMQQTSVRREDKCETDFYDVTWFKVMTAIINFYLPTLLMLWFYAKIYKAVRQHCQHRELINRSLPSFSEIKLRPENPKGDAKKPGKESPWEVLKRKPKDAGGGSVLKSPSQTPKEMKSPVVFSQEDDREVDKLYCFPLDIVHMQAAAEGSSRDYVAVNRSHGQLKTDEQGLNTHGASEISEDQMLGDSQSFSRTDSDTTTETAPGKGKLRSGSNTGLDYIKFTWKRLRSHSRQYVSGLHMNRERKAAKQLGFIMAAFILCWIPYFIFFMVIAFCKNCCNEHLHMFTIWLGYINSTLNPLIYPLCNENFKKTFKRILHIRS
Sequence of H2R (P47747 whole entry): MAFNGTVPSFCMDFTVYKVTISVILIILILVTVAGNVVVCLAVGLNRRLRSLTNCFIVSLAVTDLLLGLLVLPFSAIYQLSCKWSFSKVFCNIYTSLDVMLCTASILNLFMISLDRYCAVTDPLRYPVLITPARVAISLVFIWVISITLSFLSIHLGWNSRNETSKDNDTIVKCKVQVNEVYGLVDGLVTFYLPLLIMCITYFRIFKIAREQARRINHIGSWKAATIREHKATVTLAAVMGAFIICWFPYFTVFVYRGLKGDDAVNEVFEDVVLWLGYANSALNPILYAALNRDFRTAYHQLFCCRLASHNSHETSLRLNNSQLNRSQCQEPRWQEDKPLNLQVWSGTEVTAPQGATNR
Sequence of Human H4R (Q9H3N8 whole entry): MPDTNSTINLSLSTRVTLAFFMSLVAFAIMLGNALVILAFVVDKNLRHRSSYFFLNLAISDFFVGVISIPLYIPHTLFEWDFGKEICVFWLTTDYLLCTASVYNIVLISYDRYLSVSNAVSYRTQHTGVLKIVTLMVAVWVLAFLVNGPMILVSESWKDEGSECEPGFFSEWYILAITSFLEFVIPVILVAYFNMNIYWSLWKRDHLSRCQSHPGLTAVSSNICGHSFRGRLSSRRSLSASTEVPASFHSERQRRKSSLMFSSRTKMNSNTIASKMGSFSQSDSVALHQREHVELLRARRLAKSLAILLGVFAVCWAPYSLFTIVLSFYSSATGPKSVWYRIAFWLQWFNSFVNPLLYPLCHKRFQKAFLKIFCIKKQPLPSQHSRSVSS

Cl.Clc1ccc(CCCOCCCN2CCCCC2)cc1 [1-[3-[3-(4-chlorophenyl)propoxy]propyl]-piperidine monohydrochloride]
IC50 (Human H1R): > 10 µM | Ki (H2R): ~5 µM | Ki (Human H4R): > 100 µM | reduction of cumulated duration of spike-and-wave discharges vs. saline (GAERS rats; 5 mg/kg, i.p.): 25% | reduction of cumulated duration of spike-and-wave discharges vs. saline (GAERS rats; 20 mg/kg, i.p.): 77% | number and cumulated durations of spike and wave discharges (GAERS rats; 20 mg/kg, i.p., 20, 40 and 60 min after administration): significantly decreased | EEG background activity (spectral analysis of inter-ictal periods) (GAERS rats; epilepsy models): not associated with significant change in EEG background activity | protection in the maximal electroshock seizure model (mice [1]): complete protection | time animals almost permanently wakeful (cats; 10 mg/kg oral): 6 to 12 h | increase in W duration (cats; 10 mg/kg oral, 6 h recording period): 79% | animal behavior after treatment (cats; oral): No major change in the animal behavior | awakening (W) at the expense of SWS and PS (cats; oral, 5 or 10 mg/kg): dose-dependent increase in awakening | increase in W duration (mice [2]; 10 mg/kg oral): 29% | increase in W duration (mice [2]; 20 mg/kg oral): 69% | behavioral change in treated mice (mice [2]; oral): No behavioral change | awakening (W) at the expense of SWS and PS (mice [2]; oral, 2.5, 5, 10 or 20 mg/kg): dose-dependent increase in awakening | natural forgetting, association with tacrine (mice [3]; 15 mg/kg i.p. together with tacrine 0.25 mg/kg i.p.): without change in the tacrine effect | natural forgetting (mice [3]; 15 mg/kg, i.p., 30 min before T1): significantly reduced | maximum non lethal dose (mice [4]; mice): 100 mg/kg | minimum lethal dose (mice [4]; mice, i.v.): 10 mg/kg | minimum lethal dose (mice [4]; mice, p.o.): 150 mg/kg | no-effect dose (mice [4]; iv): > 5 mg/kg | no-effect dose (mice [4]; po): > 30 mg/kg | Delay of apparition (epileptic patients; 20 mg single dose): 2 h | Duration of effect (epileptic patients; 20 mg single dose): 6 h | Suppression of PPR (epileptic patients; 20 mg single dose, monohydrochloride): No (3×) and Total | Delay of apparition (epileptic patients; [5]): <1 hour hours and 2 hours | Duration of effect (epileptic patients; [5]): >8 h and 26 h | Suppression of PPR (epileptic patients; [5]): No (2×) and Total and Partial | Delay of apparition (epileptic patients; [6]): 2 hours and <1 hour hours (3×) | Duration of effect (epileptic patients; [6]): >8 hours (2×) and >36 hours and 26 hours | Suppression of PPR (epileptic patients; [6]): Partial; also recorded: Total | clinical response (epileptic patients; 60 mg, four patients): clinical response in all four patients | appearance of effect post administration (epileptic patients; 20-60 mg, overall): 1 to 2 h | solubility (physchem; pH 4.5, aqueous buffer): > 1000 mg/mL | solubility (physchem; pH 7.4, aqueous buffer): > 1000 mg/mL | solubility (physchem; water): > 1000 mg/mL | difference between the affinity at H3R and at other histamine receptors (human H3R): three orders of magnitude | potency at the human H3R as compared to the mouse H3R (human H3R; same test system): about 6 times
